Measurements as given in PubChem BioAssay (NCI).
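96-well plates; 48 h exposure; 5 concentrations. Endpoints by linear interpolation between flanking doses. Not reached: highest tested concentration assigned. GI50 is the concentration that inhibits growth by half. At the TGI there is no net growth.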 Where a SMILES comes first, the peptide text is derived from it. [ ]: non-standard residue; d: D form. The star is where a group is joined. Ac5c = NC1(C(=O)O)CCCC1; Cbz = O=C(OCc1ccccc1)*; Boc = CC(C)(C)OC(=O)*; tBu = CC(C)(C)*

How the values were obtained:
Assay in all cases: NCI anticancer screen, dose series, 48 h
MDA-MB-231 breast = system: MDA-MB-231 breast
786-0 renal = system: 786-0 renal
UACC-257 melanoma = system: UACC-257 melanoma
MOLT-4 leukemia = system: MOLT-4 leukemia
NCI-H226 lung = system: NCI-H226 lung
NCI-H23 lung = system: NCI-H23 lung
HL-60(TB) leukemia = system: HL-60(TB) leukemia
KM12 colon = system: KM12 colon
SF-268 CNS = system: SF-268 CNS
K-562 leukemia = system: K-562 leukemia
NCI-H522 lung = system: NCI-H522 lung
UO-31 renal = system: UO-31 renal
PC-3 prostate = system: PC-3 prostate
NCI/ADR-RES ovarian = system: NCI/ADR-RES ovarian
CCRF-CEM leukemia = system: CCRF-CEM leukemia
A498 renal = system: A498 renal
HCT-15 colon = system: HCT-15 colon
OVCAR-8 ovarian = system: OVCAR-8 ovarian
MDA-MB-435 = system: MDA-MB-435
COLO 205 colon = system: COLO 205 colon
SK-MEL-5 melanoma = system: SK-MEL-5 melanoma
MCF7 breast = system: MCF7 breast
HT29 colon = system: HT29 colon
SK-MEL-2 melanoma = system: SK-MEL-2 melanoma
NCI-H460 lung = system: NCI-H460 lung
CAKI-1 renal = system: CAKI-1 renal
M14 melanoma = system: M14 melanoma
SR leukemia = system: SR leukemia
OVCAR-4 ovarian = system: OVCAR-4 ovarian
SNB-75 CNS = system: SNB-75 CNS
SF-539 CNS = system: SF-539 CNS
DU-145 prostate = system: DU-145 prostate
T-47D breast = system: T-47D breast
BT-549 breast = system: BT-549 breast
HOP-62 NSCLC = system: HOP-62 NSCLC
IGROV1 ovarian = system: IGROV1 ovarian
SN12C renal = system: SN12C renal
HCT-116 colon = system: HCT-116 colon
HS 578T breast = system: HS 578T breast
SF-295 CNS = system: SF-295 CNS
A549 NSCLC = system: A549 NSCLC
LOX IMVI melanoma = system: LOX IMVI melanoma
OVCAR-5 ovarian = system: OVCAR-5 ovarian
RPMI-8226 leukemia = system: RPMI-8226 leukemia
SW-620 colon = system: SW-620 colon
SNB-19 CNS = system: SNB-19 CNS
SK-MEL-28 melanoma = system: SK-MEL-28 melanoma
U251 CNS = system: U251 CNS
SK-OV-3 ovarian = system: SK-OV-3 ovarian
OVCAR-3 ovarian = system: OVCAR-3 ovarian
ACHN renal = system: ACHN renal
HOP-92 NSCLC = system: HOP-92 NSCLC

## Cc1nc(N=C(N)N)nc2ccc3ccccc3c12
MDA-MB-231 breast
  GI50: 1250 nM
  TGI: 3200 nM
786-0 renal
  GI50: 1110 nM
  TGI: 3010 nM
UACC-257 melanoma
  GI50: 1460 nM
  TGI: 4170 nM
MOLT-4 leukemia
  GI50: 1370 nM
  TGI: 3620 nM
NCI-H226 lung
  GI50: 1290 nM
  TGI: 3580 nM
NCI-H23 lung
  GI50: 2330 nM
  TGI: 7310 nM
HL-60(TB) leukemia
  GI50: 2250 nM
  TGI: 5410 nM
KM12 colon
  GI50: 1030 nM
  TGI: 4370 nM
SF-268 CNS
  GI50: 505 nM
  TGI: 2550 nM
K-562 leukemia
  GI50: 1430 nM
  TGI: 6130 nM
NCI-H522 lung
  GI50: 1040 nM
  TGI: 2500 nM
UO-31 renal
  GI50: 2140 nM
  TGI: 8520 nM
PC-3 prostate
  GI50: 1260 nM
  TGI: 4100 nM
NCI/ADR-RES ovarian
  GI50: 11400 nM
  TGI: 36000 nM
CCRF-CEM leukemia
  GI50: 1760 nM
  TGI: 6010 nM
A498 renal
  GI50: 1540 nM
  TGI: 3230 nM
HCT-15 colon
  GI50: 2990 nM
  TGI: 14100 nM
OVCAR-8 ovarian
  GI50: 811 nM
  TGI: 3910 nM
MDA-MB-435
  GI50: 1280 nM
  TGI: 2770 nM
COLO 205 colon
  GI50: 1130 nM
  TGI: 3130 nM
SK-MEL-5 melanoma
  GI50: 1510 nM
  TGI: 3320 nM
MCF7 breast
  GI50: 441 nM
  TGI: 2930 nM
HT29 colon
  GI50: 1950 nM
  TGI: 4960 nM
SK-MEL-2 melanoma
  GI50: 1720 nM
  TGI: 3370 nM
NCI-H460 lung
  GI50: 2310 nM
  TGI: 6560 nM
CAKI-1 renal
  GI50: 2500 nM
  TGI: 10900 nM
M14 melanoma
  GI50: 1590 nM
  TGI: 3430 nM
SR leukemia
  GI50: 423 nM
  TGI: 2260 nM
OVCAR-4 ovarian
  GI50: 1440 nM
  TGI: 5100 nM
SNB-75 CNS
  GI50: 524 nM
  TGI: 1970 nM
SF-539 CNS
  GI50: 1390 nM
  TGI: 2980 nM
DU-145 prostate
  GI50: 1530 nM
  TGI: 5310 nM
T-47D breast
  GI50: 1120 nM
  TGI: 7240 nM
BT-549 breast
  GI50: 2670 nM
  TGI: 7960 nM
HOP-62 NSCLC
  GI50: 1250 nM
  TGI: 3600 nM
IGROV1 ovarian
  GI50: 1530 nM
  TGI: 7870 nM
SN12C renal
  GI50: 490 nM
  TGI: 3840 nM
HCT-116 colon
  GI50: 1120 nM
  TGI: 4820 nM
HS 578T breast
  GI50: 606 nM
  TGI: 3160 nM
SF-295 CNS
  GI50: 1030 nM
  TGI: 4430 nM
A549 NSCLC
  GI50: 1950 nM
  TGI: 7240 nM
LOX IMVI melanoma
  GI50: 1570 nM
  TGI: 3180 nM
OVCAR-5 ovarian
  GI50: 2290 nM
  TGI: 7520 nM
RPMI-8226 leukemia
  GI50: 2530 nM
  TGI: 7360 nM
SW-620 colon
  GI50: 897 nM
  TGI: 10300 nM
SNB-19 CNS
  GI50: 942 nM
  TGI: 4890 nM
SK-MEL-28 melanoma
  GI50: 1530 nM
  TGI: 3710 nM
U251 CNS
  GI50: 676 nM
  TGI: 2290 nM
SK-OV-3 ovarian
  GI50: 1920 nM
  TGI: 6850 nM
OVCAR-3 ovarian
  GI50: 1320 nM
  TGI: 3770 nM
ACHN renal
  GI50: 1790 nM
  TGI: 5150 nM

## COC(=O)C1(NC(=O)C(Cc2ccccc2)NC(=O)C(NC(=O)C(CCCCNC(=O)OC(C)(C)C)NC(=O)C(Cc2c[nH]c3ccccc23)NC(=O)C(Cc2ccccc2)NC(=O)OCc2ccccc2)C(C)OC(C)(C)C)CCCC1 (stereo unspecified) (Cbz-FWK(Boc)T(tBu)F[Ac5c]-OMe; configuration not given here)
UACC-257 melanoma
  TGI: > 100000 nM
NCI-H226 lung
  TGI: > 100000 nM
NCI-H23 lung
  TGI: > 100000 nM
HOP-92 NSCLC
  TGI: > 100000 nM
